Measurements from ChEMBL document CHEMBL3826966, “A chromatography-free isolation of rohitukine from leaves of Dysoxylum binectariferum: Evaluation for in vitro cytotoxicity, Cdk inhibition and physicochemical properties” (Bioorg Med Chem Lett, 2016).
≈ marks a conversion by molar mass, not a printed value.

Legend:
[1] = biological target: RAC-alpha serine/threonine-protein kinase (Homo sapiens) (UniProt P31749); experiment: Inhibition of human PKBalpha assessed as remaining enzyme activity at 50 uM after 30 mins by 33P-ATP filter-binding assay
U-251 = experiment: Cytotoxicity against human U251 cells assessed as cell growth inhibition after 48 hrs by MTT assay; type: functional; details: U-251, 48 h
[2] = Cell cycle arrest in human HL60 cells assessed as accumulation at G2 phase at 5 uM (reference value: 5 %); type: functional, cell-based; details: HL-60
[3] = biological target: Protein-tyrosine kinase 6 (Homo sapiens) (UniProt Q13882); experiment: Inhibition of human BRK (1 to 451 residues) assessed as remaining enzyme activity at 50 uM after 30 mins by 33P-ATP filter-binding assay
[4] = biological target: Serine/threonine-protein kinase WNK1 (Homo sapiens) (UniProt Q9H4A3); experiment: Inhibition of human WNK1 (1 to 661 residues) assessed as remaining enzyme activity at 50 uM after 30 mins by 33P-ATP filter-binding assay
[5] = biological target: Casein kinase II (Homo sapiens) (UniProt P67870+P68400+P19784); experiment: Inhibition of human CK2 assessed as remaining enzyme activity at 50 uM after 30 mins by 33P-ATP filter-binding assay; type: protein-complex assay
[6] = biological target: Serine/threonine-protein kinase 26 (Homo sapiens) (UniProt Q9P289); experiment: Inhibition of human MST4 (2 to 416 residues) assessed as remaining enzyme activity at 50 uM after 30 mins by 33P-ATP filter-binding assay
ASPC1 = experiment: Cytotoxicity against human AsPC1 cells assessed as cell growth inhibition after 48 hrs by MTT assay; type: functional; details: ASPC1, 48 h
[7] = Cell cycle arrest in human HL60 cells assessed as accumulation at S phase at 5 uM (reference value: 36 %); type: functional, cell-based; details: HL-60
[8] = biological target: Rho-associated protein kinase 2 (Rattus norvegicus) (UniProt Q62868); experiment: Inhibition of rat ROCK2 (2 to 543 residues) assessed as remaining enzyme activity at 50 uM after 30 mins by 33P-ATP filter-binding assay
[9] = biological target: CDK9/cyclin T1 (Homo sapiens) (UniProt O60563+P50750); experiment: Inhibition of human Cdk9/T1 using YSPTSPSYSPTSPSYSPTSPKKK peptide as substrate assessed as remaining enzyme activity at 50 uM after 30 mins by 33P-ATP filter-binding assay; type: protein-complex assay
[10] = biological target: Dual specificity protein kinase TTK (Homo sapiens) (UniProt P33981); experiment: Inhibition of human TTK (1 to 857 residues) assessed as remaining enzyme activity at 50 uM after 30 mins by 33P-ATP filter-binding assay
[11] = biological target: Serine/threonine-protein kinase BRSK1 (Homo sapiens) (UniProt Q8TDC3); experiment: Inhibition of human BRSK1 (2 to 778 residues) assessed as remaining enzyme activity at 50 uM after 30 mins by 33P-ATP filter-binding assay
[12] = biological target: Mitogen-activated protein kinase 14 (Homo sapiens) (UniProt Q16539); experiment: Inhibition of human p38alpha MAPK (1-360 residues) assessed as remaining enzyme activity at 50 uM after 30 mins by 33P-ATP filter-binding assay
[13] = biological target: Dual specificity tyrosine-phosphorylation-regulated kinase 1A (Homo sapiens) (UniProt Q13627); experiment: Inhibition of human DYRK1A (1 to 502 residues) assessed as remaining enzyme activity at 50 uM after 30 mins by 33P-ATP filter-binding assay
[14] = biological target: Serine/threonine-protein kinase pim-1 (Homo sapiens) (UniProt P11309); experiment: Inhibition of human PIM1 (2 to 313 residues) assessed as remaining enzyme activity at 50 uM after 30 mins by 33P-ATP filter-binding assay
[15] = biological target: Serine/threonine-protein kinase PAK 6 (Homo sapiens) (UniProt Q9NQU5); experiment: Inhibition of human PAK6 (2 to 681 residues) assessed as remaining enzyme activity at 50 uM after 30 mins by 33P-ATP filter-binding assay
[16] = biological target: Ephrin type-B receptor 3 (Homo sapiens) (UniProt P54753); experiment: Inhibition of human EPHB3 (561 to 998 residues) assessed as remaining enzyme activity at 50 uM after 30 mins by 33P-ATP filter-binding assay
[17] = Partition coefficient, logP of the compound in water/PBS buffer at 25 degC by retention time method; type: physicochemical
[18] = biological target: Serine/threonine-protein kinase Sgk1 (Homo sapiens) (UniProt O00141); experiment: Inhibition of human SGK1 assessed as remaining enzyme activity at 50 uM after 30 mins by 33P-ATP filter-binding assay
[19] = biological target: Ribosomal protein S6 kinase alpha-1 (Homo sapiens) (UniProt Q15418); experiment: Inhibition of human RSK1 (1 to 735 residues) assessed as remaining enzyme activity at 50 uM after 30 mins by 33P-ATP filter-binding assay
[20] = biological target: Serine/threonine-protein kinase STK11 (Homo sapiens) (UniProt Q15831); experiment: Inhibition of human LKB1 (1 to 433 residues) assessed as remaining enzyme activity at 50 uM after 30 mins by 33P-ATP filter-binding assay
[21] = biological target: Serine/threonine-protein kinase Nek6 (Homo sapiens) (UniProt Q9HC98); experiment: Inhibition of human NEK6 (8 to 313 residues) assessed as remaining enzyme activity at 50 uM after 30 mins by 33P-ATP filter-binding assay
[22] = biological target: Discoidin domain-containing receptor 2 (Homo sapiens) (UniProt Q16832); experiment: Inhibition of human DDR2 (467 to 854 residues) assessed as remaining enzyme activity at 50 uM after 30 mins by 33P-ATP filter-binding assay
[23] = biological target: Serine/threonine-protein kinase Chk2 (Homo sapiens) (UniProt O96017); experiment: Inhibition of human CHK2 (5 to 543 residues) assessed as remaining enzyme activity at 50 uM after 30 mins by 33P-ATP filter-binding assay
[24] = biological target: Serine/threonine-protein kinase 33 (Homo sapiens) (UniProt Q9BYT3); experiment: Inhibition of human STK33 (1 to 514 residues) assessed as remaining enzyme activity at 50 uM after 30 mins by 33P-ATP filter-binding assay
[25] = biological target: MAP kinase-activated protein kinase 2 (Homo sapiens) (UniProt P49137); experiment: Inhibition of human MAPKAPK2 assessed as remaining enzyme activity at 50 uM after 30 mins by 33P-ATP filter-binding assay
[26] = biological target: Vascular endothelial growth factor receptor (Homo sapiens) (UniProt P17948+P35916+P35968); experiment: Inhibition of human VEGFR assessed as remaining enzyme activity at 50 uM after 30 mins by 33P-ATP filter-binding assay; type: protein assay
[27] = Thermodynamic equilibrium solubility in PBS buffer at 120 ug/ml at pH 7.4 by HPLC analysis; type: physicochemical; details: read-out: Therm_solubility
HL-60 = experiment: Induction of apoptosis in human HL60 cells assessed as apoptotic cells at 1 uM (reference value: 1 %); type: functional
[28] = biological target: Myosin light chain kinase, smooth muscle (Homo sapiens) (UniProt Q15746); experiment: Inhibition of human SmMLCK (475 to 838 residues) assessed as remaining enzyme activity at 50 uM after 30 mins by 33P-ATP filter-binding assay

Activity [1]: 76% | Activity [3]: 93% | Activity [4]: 100% | Activity [5]: 90% | Activity [6]: 68% | Activity [8]: 64% | Activity [9]: 7% | Activity [10]: 56% | Activity [11]: 36% | Activity [12]: 69% | Activity [13]: 27% | Activity [14]: 27% | Activity [15]: 79% | Activity [16]: 82% | logP [17]: 1.01 | Activity [18]: 92% | Activity [19]: 31% | Activity [20]: 59% | Activity [21]: 84% | Activity [22]: 79% | Activity [23]: 60% | Activity [24]: 54% | Activity [25]: 52% | Activity [26]: 18% | solubility thermodynamic [27]: 16.9 mg/mL (≈ 55.5 mM) | Activity [28]: 78%
Structure (SMILES): Cc1cc(=O)c2c(O)cc(O)c([C@H]3CCN(C)C[C@H]3O)c2o1 [ROHITUKINE]
GI50 (U-251): 32 µM | Activity [2]: 11% | GI50 (ASPC1): 21 µM | Activity [7]: 43% | Activity (HL-60): 1%
